The subject of data set [1] is SARS-CoV-2 original virus (SARS-CoV-2/human/Denmark/DK-AHH1/2020). The data set is described as follows: microbe, parasite or virus in culture. The format is cell-based.
The conditions of data set [2]: human, in vivo; cited from earlier work.
Data set [3] relates to VeroE6 and A549-hACE2 cells.
The mark [4] stands for this setting: Severe acute respiratory syndrome coronavirus 2.
Setting [5] is: Severe acute respiratory syndrome coronavirus 2, Vero C1008.

Results on two molecules are retold here after publication PMC12529750 (Emerging Microbes & Infections, 2025).

On to `Cn1cnc(Cn2c(=O)[nH]/c(=N\c3cc4cn(C)nc4cc3Cl)n(Cc3cc(F)c(F)cc3F)c2=O)n1` [ENS, Ensitrelvir], for which the EC50 was found to be 100 nM in data set [1] (setting [4]) and 420 nM in data set [1] (setting [5]). The Cmax in data set [2] is 57 µM. Further, the “Cytotoxicity (cell viability, CC50)” value in data set [3] is “low”.
Turning to `CC(C)(C)[C@H](NC(=O)C(F)(F)F)C(=O)N1C[C@H]2[C@@H]([C@H]1C(=O)N[C@H](C#N)C[C@@H]1CCNC1=O)C2(C)C` [NIR, Nirmatrelvir], the figures for the EC50 in data set [1] (setting [4]) and in data set [1] (setting [5]) were 40 nM and 2900 nM, respectively.
